One experiment concerns fibroblasts (NIH 3T3). The experiment in a line: Smooth muscle contraction in vitro assay (collagen gel), control cells. The experiment is classed as cell-based, Murine. The following applies: control cells NIH 3T3. As to the method:
(§1) A mixture of 50% collagen solution (Vitrogen), 25% 4×DMEM with supplemented sodium bicarbonate prepared from powder (Gibco), ˜5 μl volume of glass bead (120-150 μm soda lime microspheres in light blue color) were added to approximately 5×10^5 cells (smooth muscle cells differentiated from ADSCs, although other cell types were utilized as negative controls) to a total volume of 400 μl was prepared on ice. The slurry was transferred to a 24-well plate (with calculated resulting thickness of around 2 mm) and the gel was allowed to polymerize in the 37° C. incubator overnight. Appropriate cell culture medium was added the next day to supplement cell growth, e,.g., smooth muscle medium was added to smooth muscle cells or adipogenic medium was added to adipose cells. The gel was incubated again for another night.
(§2) The following day (2 days after casting the gel) the gel was partially released (i.e., about 280° around the circumference of the well) from the tissue culture well by gently pulling the gel away from the side of the well with a pipette. Carbachol (an acetylcholine agonist) was added to the partially released gel. Response to addition of the drug was monitored by use of a microscope connected to a real-time camera.
(§3) Murine NIH 3T3 (fibroblasts ) or undifferentiated PLA cells were run concurrently as controls.
(§4) Pictures were taken before the gel was released at marked fields. […]

In the next experiment the test system is undifferentiated PLA. The description is as above. The experiment is classed as cell-based. As to the method: as §1, §2, §3, §4
Experiment [1] concerns smooth muscle cells differentiated from ADSCs. The experiment in a line: Smooth muscle contraction in vitro assay (collagen gel). The experiment is classed as cell-based. As to the method: as §1, §2
Pictures were taken before the gel was released at marked fields. The gel was released with a pipette tip about 280° around the wall of the well. […]

Consider `C[N+](C)(C)CCOC(N)=O` [Carbachol], for which the “contractile response of gel to the agent” value in the experiment on fibroblasts (NIH 3T3) and in the experiment with undifferentiated PLA was “very weak response” throughout.

For `CNC[C@H](O)c1cccc(O)c1` [Phenylephrine], in experiment [1] (agent added to partially released gel), the “contractile response of gel to the agent” value is “shown to contract gels”.

Regarding `CC(C)NCC(O)COc1cccc2ccccc12` (stereo not drawn) [Propranolol], in experiment [1] (added beforehand), the “effect on contractile response to isoproterenol” value is on record as “reduced the contractile response”.

With `CC(C)NCC(O)c1ccc(O)c(O)c1` (stereo not drawn) [isoproterenol], the “contractile response of gel to the agent” value in the experiment on fibroblasts (NIH 3T3) and with undifferentiated PLA was “no response” throughout.
